Data from publication PMC11887051, “Discovery of ONO-2920632 (VU6011887): A Highly Selective and CNS Penetrant TREK-2 (TWIK-Related K+ Channel 2) Preferring Activator In Vivo Tool Compound” (ACS Chemical Neuroscience, 2025).

Experiments:
[1] = rat plasma:brain level study (Kp, Kp,uu); assay type: in vivo; conditions: male, Sprague-Dawley, brain and plasma; for Kp at 2 h / Kp uu at 2 h: oral rat plasma:brain level study, 2 h after 3 mg/kg PO
Description: In vivo DMPK experimental:
Determination of brain to plasma ratio:
All animal study procedures were approved by the Institutional Animal Care and Use Committee and were conducted in accordance with the National Institutes of Health regulations of animal care covered in Principles of Laboratory Animal Care (National Institutes of Health). All rats were fasted overnight prior to testing. […]
At 15 min post dosing, blood sample was collected into chilled, K2EDTA anticoagulant-fortified tube and immediately placed on wet ice. The blood sample was then centrifuged (1700 rcf, 5 minutes, 4 °C) to obtain plasma sample. At the same post-administration time point, whole brain sample was obtained by rapid dissection, rinsed with PBS, and immediately frozen in individual tissue collection box (dry ice). All brain and plasma samples were stored at -80 °C until […]
Sample Analysis: Concentrations in plasma and brain homogenates were quantified by liquid chromatography tandem mass spectrometry (LC-MS/MS). Whole brains were homogenized in 3 mL of 70:30 IPA:water in a mini bead beater for 3 min, and centrifuged at 3,500 g for 5 min. 5 uL of the supernatant was diluted in 15 uL of blank plasma for quantification of the analytes. Plasma samples were centrifuged at 3,500 g for 5 min. A standard curve was generated by diluting the analytes DMSO stocks with blank plasma to obtain a final concentration of 10,000 ng/ml followed by a serial dilution down to 0.5 ng/ml. Quality controls were generated by a serial dilution of the 5,000 ng/ml standard curve solution in blank plasma to obtain 3 concentrations of 500, 50, and 5 ng/ml. 20 uL of brain diluted in plasma, plasma, blank plasma, standard curve and QC samples were loaded in a V-bottom 96-well plate. 120 uL of acetonitrile containing 0.05 uM carbamazepine (internal standard) was added to each well and the plate was centrifuged at 3,500 g for 5 min. 60 uL of the supernatant of each well (protein free) was transferred to a new 96-well plate containing 60 uL of water. The plates were sealed for analysis by LC-MS/MS.
Plasma and brain tissue samples originating from in vivo studies were analyzed by electrospray ionization using an AB Sciex Q-TRAP 5500 (Foster City, CA) that was coupled to a Shimadzu LC-20AD pump (Columbia, MD) and a Leap Technologies CTC PAL auto-sampler (Carrboro, NC). Analytes were separated by gradient elution using a C18 column (3 x 50 mm, 3 mm; Fortis Technologies Ltd, Cheshire, UK) that was thermostated at 40 °C. HPLC mobile phase A was 0.1% formic acid in water (pH unadjusted); mobile phase B was 0.1% formic acid in acetonitrile (pH […]
min, with an isocratic hold for 0.5 min, before transitioning to 10% B over 0.05 min. The column was re-equilibrated (1 min) before the next sample injection. The total run time was 2.55 min, and the HPLC flow rate was 0.5 ml/min. The source temperature was set at 500 °C, and mass spectral analyses were performed using a Turbo-Ion spray source in positive ionization mode (5.0-kV spray voltage) and using multiple-reaction monitoring of transitions specific for the analytes. All data were analyzed using AB Sciex Analyst 1.5.1 software.
Brain plasma concentration ratio (Kp) was calculated by dividing brain concentration by plasma concentration for each animal. Unbound brain to unbound plasma concentration ratio (Kp,uu) is calculated using the following formula: Kp,uu = (Brain ng/g x brain fu)/(plasma ng/ml x plasma fu).
For determination of the plasma concentration-time profile, compounds were formulated in methyl cellulose and administered as a 3 mg/kg PO dose to male C57BL/6 mouse or SD rat (n = 2). For the same determination, compounds were formulated in HP-β-CD and administered as a 0.1 mg/kg IV dose to male beagle dog (n = 2).
Plasma samples originating from in vivo studies were analyzed by electrospray ionization using a Q-TRAP 5500 (AB Sciex) that was coupled to a Prominence UFLC XR (Shimadzu Corporation). […]

[2] = rat predicted hepatic clearance (hepatic microsomes); assay type: in vitro ADME
Description: Intrinsic clearance: Human or rat hepatic microsomes (0.5 mg/mL) and 1 µM test compound were incubated in 100 mM potassium phosphate pH 7.4 buffer with 3 mM MgCl2 at 37 °C with constant shaking. After a 5 min preincubation, the reaction was initiated by the addition of NADPH (1 mM). At selected time intervals (0, 3, 7, 15, 25, and 45 min), aliquots were taken and subsequently placed into a 96-well plate containing cold acetonitrile with internal standard (50 ng/mL carbamazepine). Plates were then centrifuged at 3000 rcf (4 °C) for 10 min, and the supernatant was transferred to a separate 96-well plate and diluted 1:1 with water for LC/MS/MS analysis. The in vitro half-life ( 1/2, min, Eq. 1), intrinsic clearance (CLint, mL/min/kg, Eq. 2), and subsequent predicted hepatic clearance (CLhep, mL/min/kg, Eq. 3) was determined employing the […]
where k represents the slope from linear regression analysis of the natural log percent remaining of a test compound as a function of incubation time […]
(2) CLint = in vitroT1/2 x mg microsomes x gram liver x kg body wt ascale-up factors: of 20 (human) or 45 (rat) […]
where Qh (hepatic blood flow, mL/min/kg) is 21 (human) or 70 (rat).
LC/MS/MS Bioanalysis of Samples from Plasma Protein Binding and Intrinsic Clearance […]
Samples were analyzed on a Thermo Electron TSQ Quantum Ultra triple quad mass spectrometer (San Jose, CA) via electrospray ionization (ESI) with two Themo Electron Accella pumps (San Jose, CA), and a Leap Technologies CTC PAL autosampler (Carrboro, NC). Analytes were separated by gradient elution on a dual column system with two Thermo Hypersil Gold (2.1 x 30 mm, 1.9 µm) columns (San Jose, CA) thermostated at 40 °C. HPLC mobile phase A was 0.1% formic acid in water and mobile phase B was 0.1% formic acid in acetonitrile. The gradient started […]
for 0.2 min; returned to 10% B in 0.1 min. The total run time was 1.3 min and the HPLC flow rate was 0.8 mL/min. While pump 1 ran the gradient method, pump 2 equilibrated the alternate column isocratically at 10% B. Compound optimization, data collection, and processing was performed using Thermo Electron's QuickQuan software (v2.3) and Xcalibur (v2.0.7 SP1).

[3] = intravenous, 0.2 mg/kg, rat cassette PK study

Structure (SMILES) | Kp at 15 min [1, 3] | Kp uu at 15 min [1, 3] | rat CLhep (predicted hepatic clearance) [2] [mL/min/kg] | Kp at 2 h [1] | Kp uu at 2 h [1] | Kp uu ([1]; rat, dosing not given)
O=C(NCc1ccc(Br)cc1Cl)c1ccc(-c2ncn[nH]2)cc1 [Compound 14a] | 0.2 | 0.36 | – | – | – | –
O=C(NCc1ccc(OC(F)(F)F)cc1F)c1ccc2ncnn2c1 [Compound 19b] | – | – | 2.9 | 0.37 | 0.38 | –
CS(=O)(=O)Nc1ccc(C(=O)NCc2ccc(Cl)cc2Cl)cc1 [Compound 13] | – | – | 17.4 | 0.26 | 0.15 | –

Second part, the molecule after the results:

Kp at 15 min [1, 3] | Kp uu at 15 min [1, 3] | rat CLhep (predicted hepatic clearance) [2] [mL/min/kg] | Kp at 2 h [1] | Kp uu at 2 h [1] | Kp uu ([1]; rat, dosing not given) | Structure (SMILES)
– | – | 5.7 | 0.5 | 0.2 | – | Cc1cc(OC(F)(F)F)ccc1CNC(=O)c1ccc2ncnn2c1 [Compound 19a]
– | – | – | – | – | 0.078 | O=C(NCc1ccc(OC(F)(F)F)cc1Cl)c1ccc2nncn2c1 [Compound 20]
